*1 amine or outer side, *2 acyl side, *3 side chain or, on linkers, in order; H or OH if unused. Where a SMILES comes first, the peptide text is derived from it. Bridges are numbered along the chain shown (N, C = ends). [ ]: non-standard residue; d: D form. The star is where a group is joined. ξ: configuration not given here. Octanoyl(6-Me) = CCC(C)CCCCC(=O)*; Thr(3ξ) = CC(O)[C@H](N)C(=O)O; NH(2-ClPh) = Clc1ccccc1N*; X1 = CC[C@H](C)CCCCC(=O)*; dDab = NCC[C@@H](N)C(=O)O; Dab = NCC[C@H](N)C(=O)O; CO = O=C([*:1])[*:2]; ξDab = NCCC(N)C(=O)O
Experiments:
A. baumannii = assay: MIC50/90 against small panels (n = 35); type: cell-based, Acinetobacter baumannii; set-up: key: A: a MIC value measurement that is the same as that observed for polymyxin B; a MIC value measured that is lower than the comparable value observed for polymxin B; a MIC value measured that is higher than the comparable value observed for polymyxin B; conditions: small panel n = 35, relative to polymyxin B
Description: (§1) Antibacterial potency can be assessed by broth microdilution according to CLSI guidelines, plates can be incubated at 37° C., and aeration (rotation at 200 rpm) can be employed. In some assays, surfactant (Survanta, Abbott Laboratories) can be added to give a final concentration of 1, 10 and 40% in caMHB. Native polymyxin A, polymyxin B and the comparator compound of Formula II (polymyxin B decapeptide with an o-chlorophenyl urea tail) were included for comparison.

E. coli [1] = assay: MIC50 and MIC90, CLSI broth microdilution, panel of Gram negative strains; type: cell-based, Escherichia coli; set-up: key: A: a measured MIC value equal to that of polymyxin B; a measured MIC value less than the corresponding MIC value measured for polymyxin B; a measured MIC value greater than the corresponding MIC value measured for polymyxin B; conditions: relative to polymyxin B; some strains multi-drug resistant
Description: (§2) MIC testing can be performed according to Clinical and Laboratory Standards Institute (CLSI) M7-A7 (2006) broth microdilution methods. Unless otherwise indicated, MIC values are provided in units of micrograms per milliliter.
(§3) One day prior to testing, individual colonies were isolated by streaking onto rich, non-selective Tryptic Soy agar with 5% lysed sheeps blood (TSAB) with incubation at 35-37° C. for 18-24 hours.
(§4) Cultures were prepared by touching 3-5 colonies into 3 mL of cation-adjusted Mueller Hinton Broth (caMHB) in a 14-mL tube (caMHB was prepared and sterilized according to manufacturer's specifications).
(§5) OD600 of growing cultures was measured and adjusted to approximately 10^5 colony forming units per mL (CFU/mL) in caMHB for MIC inoculation (approximately OD600 0.001).
(§6) Diluted cultures were used to inoculate 50 μL per well in broth microdilution assays (final volume 100 μl per well; compounds were prepared in two-fold dilutions).
(§7) Plates were incubated 16-20 hours at 37° C., with shaking at 200 rpm.
(§8) OD600 was determined for all wells. Growth was defined as OD600>0.1. MICs were defined as the lowest concentration producing no visible turbidity (OD600<0.1).

P. aeru = assay: as above; type: cell-based, Pseudomonas aeruginosa; set-up: key: A: a measured MIC value equal to that of polymyxin B; a measured MIC value less than the corresponding MIC value measured for polymyxin B; a measured MIC value greater than the corresponding MIC value measured for polymyxin B; conditions: relative to polymyxin B, some strains multi-drug resistant
Description: as §2, §3, §4, §5, §6, §7, §8

P. aeruginosa 44 [2] = assay: MIC against the primary screening panel (broth microdilution); type: cell-based, Pseudomonas aeruginosa; set-up: key: A: a MIC value measurement that is the same as that observed for polymyxin B; a MIC value measured that is lower than the comparable value observed for polymxin B; a MIC value measured that is higher than the comparable value observed for polymyxin B; conditions: relative to polymyxin B
Description: as §1

K. pneumoniae 933 = assay: as above; type: cell-based, Klebsiella pneumoniae; set-up: key: A: a MIC value measurement that is the same as that observed for polymyxin B; a MIC value measured that is lower than the comparable value observed for polymxin B; a MIC value measured that is higher than the comparable value observed for polymyxin B; conditions: relative to polymyxin B
Description: as §1

E. coli 1527 = assay: as above; type: cell-based, Escherichia coli; set-up: key: A: a MIC value measurement that is the same as that observed for polymyxin B; a MIC value measured that is lower than the comparable value observed for polymxin B; a MIC value measured that is higher than the comparable value observed for polymyxin B; conditions: relative to polymyxin B
Description: as §1

P. aeruginosa 44 [3] = assay: Neutropenic mouse lung infection model; type: in vivo; conditions: for Lungs cleared within one log10 of limit of detection: 8 through 20 mg/kg dose levels
Description: Compound of Formula (Ia) was tested in a murine thigh model. For the thigh model, female CD-1 mice were rendered neutropenic by IP injection on days −4 and −1 with 150 and 100 mg/kg cyclophosphamide, respectively. On day 0 mice were infected with 1×10^7 colony-forming units (cfu) of A. baumannii 1570 in one thigh muscle, and then administered compound SC in a dose ranging from 2 to 12 mg/kg at 1 and 6 hours post-infection.
The mouse lung model was run in the same manner as the thigh infection model, except that mice were infected IN with 1×10^7 cfu of P. aeruginosa 44 on day 0. Doses administered in the lung study ranged from 8 to 20 mg/kg. The ED−3log10 was based on cfu determination from the lung tissue 24 hours post-infection.

A. baum = assay: MIC50 and MIC90, CLSI broth microdilution, panel of Gram negative strains; type: cell-based, Acinetobacter baumannii; set-up: key: A: a measured MIC value equal to that of polymyxin B; a measured MIC value less than the corresponding MIC value measured for polymyxin B; a measured MIC value greater than the corresponding MIC value measured for polymyxin B; conditions: relative to polymyxin B; some strains multi-drug resistant
Description: as §2, §3, §4, §5, §6, §7, §8

A. baumannii 1570 = assay: MIC against the primary screening panel (broth microdilution); type: cell-based, Acinetobacter baumannii; set-up: key: A: a MIC value measurement that is the same as that observed for polymyxin B; a MIC value measured that is lower than the comparable value observed for polymxin B; a MIC value measured that is higher than the comparable value observed for polymyxin B; conditions: relative to polymyxin B
Description: as §1

E. coli [4] = assay: MIC50/90 against small panels (n = 35); type: cell-based, Escherichia coli; set-up: key: A: a MIC value measurement that is the same as that observed for polymyxin B; a MIC value measured that is lower than the comparable value observed for polymxin B; a MIC value measured that is higher than the comparable value observed for polymyxin B; conditions: small panel n = 35, relative to polymyxin B
Description: as §1

P. aeruginosa = assay: MIC50/90 against small panels (n = 35); type: cell-based, Pseudomonas aeruginosa; set-up: key: A: a MIC value measurement that is the same as that observed for polymyxin B; a MIC value measured that is lower than the comparable value observed for polymxin B; a MIC value measured that is higher than the comparable value observed for polymyxin B; conditions: small panel n = 35, relative to polymyxin B
Description: as §1

[5] = Acute toxicity testing in rats; type: in vivo, Sprague-Dawley rat; conditions: 1 mg/kg i.v., female Sprague-Dawley rat
Description: One female Sprague-Dawley rat was administered a 1 mg/kg dose of the test Compound 5. Clinical observations were taken immediately following the administration of compound and at 0.5, 1, 2 and 4 hours post-dose.

K. pneu = assay: MIC50 and MIC90, CLSI broth microdilution, panel of Gram negative strains; type: cell-based, Klebsiella pneumoniae; set-up: key: A: a measured MIC value equal to that of polymyxin B; a measured MIC value less than the corresponding MIC value measured for polymyxin B; a measured MIC value greater than the corresponding MIC value measured for polymyxin B; conditions: relative to polymyxin B; some strains multi-drug resistant
Description: as §2, §3, §4, §5, §6, §7, §8

K. pneumoniae = assay: MIC50/90 against small panels (n = 35); type: cell-based, Klebsiella pneumoniae; set-up: key: A: a MIC value measurement that is the same as that observed for polymyxin B; a MIC value measured that is lower than the comparable value observed for polymxin B; a MIC value measured that is higher than the comparable value observed for polymyxin B; conditions: small panel n = 35, relative to polymyxin B
Description: as §1

P. aeruginosa #44 [6] = assay: MICs for P. aeruginosa #44 in the presence of surfactant; type: cell-based, Pseudomonas aeruginosa; set-up: key: A: a MIC value measurement that is the same as that observed for polymyxin B; a MIC value measured that is lower than the comparable value observed for polymxin B; a MIC value measured that is higher than the comparable value observed for polymyxin B
Description: as §1

P. aeruginosa #44 [7] = assay: MIC against P. aeruginosa #44 in polystyrene plate; type: cell-based, Pseudomonas aeruginosa; conditions: range of repeated tests
Description: P. aeruginosa #44 were grown in cation adjusted Mueller Hinton Broth (caMHB) (catalog#B12322; Fisher Scientific, Pittsburgh, Pa.) at 37° C. MIC testing was performed according to Clinical and Laboratory Standards Institute [CLSI, formerly National Committee for Clinical Laboratory Standards (NCCLS), Wayne, Pa.] guidelines for broth microdilution. […]

[8] = neutropenic mouse lung, P. aeruginosa 44, SC, BID×1 d, cfu 24 hours post-infection

Molecule | A. baumannii MIC50 (A. baumannii) | A. baumannii MIC90 (A. baumannii) | E. coli MIC50 (E. coli [1]) | E. coli MIC90 (E. coli [1]) | P. aeru MIC 50 (P. aeru) | MIC P. aeruginosa 44 (P. aeruginosa 44 [2]) | MIC K. pneumoniae 933 (K. pneumoniae 933) | MIC E. coli 1527 (E. coli 1527) | Lungs cleared within one log10 of limit of detection (P. aeruginosa 44 [3]) | A. baum MIC 50 (A. baum) | A. baum MIC 90 (A. baum) | MIC A. baumannii 1570 (A. baumannii 1570) | E. coli MIC50 (E. coli [4]) | E. coli MIC90 (E. coli [4]) | P. aeruginosa MIC50 (P. aeruginosa) | P. aeruginosa MIC90 (P. aeruginosa) | K. pneu MIC 50 (K. pneu) | K. pneu MIC 90 (K. pneu) | K. pneumoniae MIC50 (K. pneumoniae) | K. pneumoniae MIC90 (K. pneumoniae) | other results
CC[C@H](C)CCCCC(=O)N[C@@H](CCN)C(=O)N[C@H](C(=O)N[C@H](CCN)C(=O)N[C@H]1CCNC(=O)[C@H]([C@@H](C)O)NC(=O)[C@H](CCN)NC(=O)[C@H](CCN)NC(=O)[C@H]([C@@H](C)O)NC(=O)[C@@H](CC(C)C)NC(=O)[C@H](CCN)NC1=O)[C@@H](C)O [Native Polymyxin A, Polymyxin A] (X1-[Dab]T[dDab][Dab][Dab][dL]T[Dab][Dab]T; lactam 4-C) | A | A | B | A | A | C | A | B | not observed | A | A | C | B | A | A | C | C | C | C | C | P. aeru MIC 90 (P. aeru): C; ED−3log10 (P. aeruginosa 44 [3]; [8]): 16.22 mg/kg; Acute (anaphylactoid) observations [5]: no clinical signs were observed; MIC P. aeruginosa #44, 0% surfactant (P. aeruginosa #44 [6]; relative to polymyxin B): C; MIC P. aeruginosa #44, 10% surfactant (P. aeruginosa #44 [6]; relative to polymyxin B): B; MIC P. aeruginosa #44, 40% surfactant (P. aeruginosa #44 [6]; relative to polymyxin B): B
CC(C)C[C@@H]1NC(=O)[C@@H](Cc2ccccc2)NC(=O)[C@H](CCN)NC(=O)C(NC(=O)[C@H](CCN)NC(=O)[C@@H](NC(=O)[C@H](CCN)NC(=O)Nc2ccccc2Cl)C(C)O)CCNC(=O)[C@H](C(C)O)NC(=O)[C@H](CCN)NC(=O)C(CCN)NC1=O (stereo partly shown) [Formula (II) comparator] ({NH(2-ClPh)-CO}-[Dab][Thr(3ξ)][Dab][ξDab][Dab][dF]L[ξDab][Dab][Thr(3ξ)]; lactam 4-C) | C | C | C | C | – | C | C | C | not seen | C | C | C | C | C | B | A | C | C | C | C | P. aeru MIC 50 (P. aeru; listed as 2): B and A; P. aeru MIC 90 (P. aeru; listed as 2): A and C; ED−3log10 (P. aeruginosa 44 [3]; historical data): approximately 12 mg/kg; MIC P. aeruginosa #44, 0% surfactant (P. aeruginosa #44 [6]; relative to polymyxin B): C; MIC P. aeruginosa #44, 10% surfactant (P. aeruginosa #44 [6]; relative to polymyxin B): B; MIC P. aeruginosa #44, 40% surfactant (P. aeruginosa #44 [6]; relative to polymyxin B): A
CCC(C)CCCCC(=O)N[C@@H](CCN)C(=O)N[C@H](C(=O)N[C@@H](CCN)C(=O)NC1CCNC(=O)[C@H](C(C)O)NC(=O)[C@H](CCN)NC(=O)C(CCN)NC(=O)[C@H](CC(C)C)NC(=O)[C@@H](Cc2ccccc2)NC(=O)[C@H](CCN)NC1=O)C(C)O (stereo partly shown) [Polymyxin B] ({Octanoyl(6-Me)}-[Dab][Thr(3ξ)][Dab][ξDab][Dab][dF]L[ξDab][Dab][Thr(3ξ)]; lactam 4-C) | A | A | A | A | A | A | A | A | not observed | A | A | A | A | A | A | A | A | A | A | A | P. aeru MIC 90 (P. aeru): A; ED−3log10 (P. aeruginosa 44 [3]; [8]): > 20 mg/kg; ED−3log10 (P. aeruginosa 44 [3]; neutropenic mouse lung, P. aeruginosa 44, SC, BID×1 d, cfu 24 hours post-infection, listed as PMB): 20.6 mg/kg; MIC against P. aeruginosa #44 In polystyrene plate (P. aeruginosa #44 [7]): 1-2 micrograms/ml; MIC P. aeruginosa #44, 0% surfactant (P. aeruginosa #44 [6]): 0.06 micrograms/ml; MIC P. aeruginosa #44, 10% surfactant (P. aeruginosa #44 [6]): 8 micrograms/ml; MIC P. aeruginosa #44, 40% surfactant (P. aeruginosa #44 [6]): >32 micrograms/ml
Colistin | – | – | – | – | – | – | – | – | – | – | – | – | – | – | – | – | – | – | – | – | MIC against P. aeruginosa #44 In polystyrene plate (P. aeruginosa #44 [7]): 2-4 micrograms/ml
